Measured values published in the supplement of paper PMC10307832.

Columns and labels:
Assay in all cases: relative viability (nuclei count vs DMSO), 5 days (fraction); higher = more cells survive
Cediranib = compound: COc1cc2c(Oc3ccc4[nH]c(C)cc4c3F)ncnc2cc1OCCCN1CCCC1 [Cediranib]
Outline: (§1)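 In 1536-well plates, lung cancer cell lines rested overnight at 37 °C before five library-drug doses (not always all listed), √10 apart, were pinned onto vehicle-anchored plates. Nuclei were counted with MetaXpress from 4× Hoechst images taken after 5 days without medium change. Viability compares treated-well with vehicle-well nuclei as a median over plates, and plates needed control CV below 25% plus at least one doubling to pass.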

Decitabine = compound: Nc1ncn([C@H]2C[C@H](O)[C@@H](CO)O2)c(=O)n1 [Decitabine]
Outline: as §1

Halofuginone = compound: O=C(C[C@H]1NCCC[C@@H]1O)Cn1cnc2cc(Br)c(Cl)cc2c1=O (racemic) [Halofuginone]
Outline: as §1

Cell Line	relative viability (Cediranib; 0.04 µM)	relative viability (Cediranib; 0.1265 µM)	relative viability (Cediranib; 0.4 µM)	relative viability (Cediranib; 1.265 µM)	relative viability (Cediranib; 4 µM)	relative viability (Decitabine; 0.04 µM)	relative viability (Decitabine; 0.1265 µM)	relative viability (Decitabine; 0.4 µM)	relative viability (Decitabine; 1.265 µM)	relative viability (Decitabine; 2 µM, anchor plate)	relative viability (Decitabine; 4 µM)	relative viability (Halofuginone; 0.001 µM)	relative viability (Halofuginone; 0.003162 µM)	relative viability (Halofuginone; 0.01 µM)	relative viability (Halofuginone; 0.03162 µM)	relative viability (Halofuginone; 0.1 µM)
EKVX	1.05	0.929	0.888	0.844	1.03	0.71	0.809	0.647	0.418	0.358	0.375	1.06	0.928	0.989	1	0.858
EMC-BAC-2	0.957	0.753	0.913	0.933	1.09	–	1.04	0.817	0.726	0.976	0.685	1.07	0.977	1.13	0.926	0.595
EPLC-272H	0.77	–	0.915	0.792	0.975	0.6	0.749	–	0.46	0.386	0.407	1.07	1.02	0.921	1.01	0.889
H3255	1.1	0.859	0.964	0.938	0.986	0.636	0.857	0.702	0.668	0.657	0.666	1.07	0.99	0.88	0.95	0.992
HARA	0.908	1.01	0.878	1.05	1.01	0.79	0.818	0.482	0.381	0.519	0.374	0.963	0.927	0.915	1.12	0.827
HCC-15	1.03	–	0.948	1.08	1	0.915	0.917	0.419	0.483	0.661	0.508	0.991	1.14	0.981	0.979	0.842
HCC-44	0.996	–	0.945	0.959	0.983	0.924	0.985	0.348	0.545	0.938	0.639	0.988	0.98	0.972	0.953	0.8
HCC-78	0.963	1.05	0.965	1.03	1	0.877	0.816	0.673	0.541	0.706	0.47	1.07	0.961	0.958	1.06	0.879
HCC-366	1.1	1.02	0.993	1.02	1	1.03	0.977	0.546	0.241	0.344	0.155	1.02	1.05	1	0.963	1.01
HCC-827	1.19	–	1.02	1.04	1.03	0.306	0.483	0.398	0.288	0.325	0.377	1.07	1.04	0.976	1.03	0.939
HOP-62	1.07	0.695	0.892	0.983	1.08	0.631	0.472	0.253	0.165	0.212	0.199	0.964	1.11	1.01	0.863	0.69
